These results are taken from US10112929B2, “Lactams as inhibitors of rock” (BRISTOL-MYERS SQUIBB COMPANY, priority 2015, dated 2018).

Counter-ions that a name gives are not always drawn.

The target in this assay is ROCK2 (Homo sapiens (Human), UniProt O75116). Briefly: biochemical.
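Further: rho kinase enzyme reaction halted with EDTA, phospho- and non-phospho peptide separated for read-out, kinase activity inhibition derived across a dose-response series, DMSO under 2%.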

ROCK2, sequence (O75116 whole entry, species assumed): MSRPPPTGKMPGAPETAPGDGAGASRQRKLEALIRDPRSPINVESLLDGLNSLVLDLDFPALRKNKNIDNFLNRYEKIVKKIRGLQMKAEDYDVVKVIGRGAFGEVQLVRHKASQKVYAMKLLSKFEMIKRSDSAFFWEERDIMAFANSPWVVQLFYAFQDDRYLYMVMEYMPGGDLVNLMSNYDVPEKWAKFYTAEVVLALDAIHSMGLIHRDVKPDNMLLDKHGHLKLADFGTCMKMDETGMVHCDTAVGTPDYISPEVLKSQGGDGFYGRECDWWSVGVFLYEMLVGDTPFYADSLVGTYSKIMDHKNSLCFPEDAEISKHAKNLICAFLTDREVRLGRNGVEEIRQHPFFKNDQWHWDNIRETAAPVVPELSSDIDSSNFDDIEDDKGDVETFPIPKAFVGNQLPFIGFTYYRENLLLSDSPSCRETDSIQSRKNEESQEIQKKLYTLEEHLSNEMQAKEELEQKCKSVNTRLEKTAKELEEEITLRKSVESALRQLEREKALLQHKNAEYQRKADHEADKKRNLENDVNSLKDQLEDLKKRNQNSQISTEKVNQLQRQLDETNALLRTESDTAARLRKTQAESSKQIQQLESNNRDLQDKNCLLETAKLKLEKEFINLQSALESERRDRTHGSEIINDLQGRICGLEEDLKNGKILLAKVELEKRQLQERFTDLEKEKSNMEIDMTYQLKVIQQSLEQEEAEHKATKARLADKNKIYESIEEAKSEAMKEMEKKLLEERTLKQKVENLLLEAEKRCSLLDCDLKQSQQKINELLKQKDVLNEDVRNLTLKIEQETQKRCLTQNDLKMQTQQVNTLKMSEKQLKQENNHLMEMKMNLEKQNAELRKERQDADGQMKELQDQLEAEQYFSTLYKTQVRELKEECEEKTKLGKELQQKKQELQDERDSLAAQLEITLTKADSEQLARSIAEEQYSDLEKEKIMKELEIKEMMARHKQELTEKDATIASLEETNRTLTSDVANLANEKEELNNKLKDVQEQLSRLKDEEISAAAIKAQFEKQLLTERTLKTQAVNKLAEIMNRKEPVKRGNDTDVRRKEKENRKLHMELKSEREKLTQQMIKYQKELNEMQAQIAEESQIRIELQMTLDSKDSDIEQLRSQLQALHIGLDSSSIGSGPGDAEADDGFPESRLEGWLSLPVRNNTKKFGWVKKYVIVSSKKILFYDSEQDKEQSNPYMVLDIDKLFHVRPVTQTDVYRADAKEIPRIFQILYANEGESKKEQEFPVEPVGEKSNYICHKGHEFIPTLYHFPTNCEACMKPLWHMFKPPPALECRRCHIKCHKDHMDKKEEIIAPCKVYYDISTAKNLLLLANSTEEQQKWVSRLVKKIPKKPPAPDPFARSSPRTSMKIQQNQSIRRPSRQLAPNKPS

As to `COc1cccc(NC2CCN(c3ccc(-c4ccnc5[nH]ccc45)c(C)n3)C2=O)c1` (single isomer, unassigned) [Example 120, 3-((3-methoxyphenyl)amino)-1-(6-methyl-5-(1H-pyrrolo[2,3-b]pyridin-4-yl)pyridin-2-yl)pyrrolidin-2-one], the IC50 (commonly the concentration at which inhibition is half-maximal) fell in the range of 10 to 100 nM. Then `O=C1C(Nc2cccc(OCC3CC3)c2)CCN1c1ccc(-c2cn[nH]c2)cn1` (single isomer, unassigned) [Example 319, 1-(5-(1H-pyrazol-4-yl)pyridin-2-yl)-3-((3-(cyclopropylmethoxy)phenyl)amino) pyrrolidin-2-one], with 10 to 100 nM; and `COc1nc(N2CCC(N3CC[C@H](F)C3)C2=O)ccc1-c1cn[nH]c1` (mixture of isomers) [Example 290, (3S)-3-fluoro-1′-(6-methoxy-5-(1H-pyrazol-4-yl)pyridin-2-yl)-[l,3′-bipyrrolidin]-2′-one hydrochloride], with 100 to 2200 nM.

`COc1nc(N2CCC(N3CCS(=O)(=O)CC3)C2=O)ccc1-c1cn[nH]c1` (racemic) [Example 280, 3-(1,1-dioxidothiomorpholino)-1-(6-methoxy-5-(1H-pyrazol-4-yl)pyridin-2-yl)pyrrolidin-2-one] had an IC50 of 10 to 100 nM.

The compound `COc1cc(F)cc(NC2CCN(c3ccc(-c4cn[nH]c4)c(C(F)(F)F)c3)C2=O)c1` (single isomer, unassigned) [Example 370, 1-(4-(1H-pyrazol-4-yl)-3-(trifluoromethyl)phenyl)-3-((3-fluoro-5-methoxyphenyl)amino)pyrrolidin-2-one] came in with a half-inhibitory concentration (IC50) of 10 to 100 nM. With `COc1cccc(OC2CCN(c3ccc(-c4ccc5cn[nH]c5c4)c(OC)n3)C2=O)c1` (single isomer, unassigned) [Example 124, 1-(5-(1H-indazol-6-yl)-6-methoxypyridin-2-yl)-3-(3-methoxyphenoxy)pyrrolidin-2-one] the figure was 100 to 2200 nM. Regarding `COc1cc(F)cc(NC2CCN(c3cc(F)c(-c4cn[nH]c4)cc3F)C2=O)c1` (single isomer, unassigned) [Example 351, 1-(2,5-difluoro-4-(1H-pyrazol-4-yl)phenyl)-3-((3-fluoro-5-methoxyphenyl)amino)pyrrolidin-2-one], the half-inhibitory concentration (IC50) lay in the range of 10 to 100 nM. `Cc1cc(N2CCC(Nc3cccc(OCC4CC4)c3)C2=O)ncc1-c1cn[nH]c1` (single isomer, unassigned) [Example 206, 3-((3-(cyclopropylmethoxy)phenyl)amino)-1-(4-methyl-5-(1H-pyrazol-4-yl)pyridin-2-yl)pyrrolidin-2-one] yielded a concentration for half-maximal inhibition (IC50) of 100 to 2200 nM. With `COc1cc(NC2CCN(c3ccc(-c4cn[nH]c4)cc3Cl)C2=O)ccc1F` (single isomer, unassigned) [Example 162, 1-(2-chloro-4-(1H-pyrazol-4-yl)phenyl)-3-((4-fluoro-3-methoxyphenyl)amino) pyrrolidin-2-one], the IC50 fell in the range of 100 to 2200 nM. The compound `COc1cccc(CC2CCN(c3ccc(-c4cn[nH]c4)cc3)C2=O)c1` (centres unmarked) [Example 93, 1-(4-(1H-pyrazol-4-yl)phenyl)-3-(3-methoxybenzyl)pyrrolidin-2-one] came in with a half-inhibitory concentration (IC50) of 100 to 2200 nM. Turning to `COc1ccc(F)c(NC2CCN(c3ccc(-c4cn[nH]c4)cn3)C2=O)c1` (single isomer, unassigned) [Example 303, 1-(5-(1H-pyrazol-4-yl)pyridin-2-yl)-3-((2-fluoro-5-methoxyphenyl)amino)pyrrolidin-2-one], the IC50 was 10 to 100 nM. `COc1cccc(NC2C(=O)N(c3ccc(-c4cn[nH]c4)cc3)C[C@H]2CO)c1` (single isomer, unassigned) [Example 323] came in with an IC50 of under 10 nM. Then `COc1cccc(NC2CCN(c3ccc(-c4cn[nH]c4)cc3)C2=O)c1C` (single isomer, unassigned) [Example 325, 1-(4-(1H-pyrazol-4-yl)phenyl)-3-((3-methoxy-2-methylphenyl)amino) pyrrolidin-2-one], with 10 to 100 nM; and `O=C1C(Nc2cccc(OCC(F)F)c2)CCN1c1ccc(-c2cn[nH]c2)cc1` (single isomer, unassigned) [Example 237, 1-(4-(1H-pyrazol-4-yl)phenyl)-3-((3-(2,2-difluoroethoxy)phenyl)amino)pyrrolidin-2-one], with under 10 nM. `COc1cccc(N(C)C2CCN(c3ccc(-c4cn[nH]c4)cc3)C2=O)c1` (single isomer, unassigned) [Example 30, 1-(4-(1H-pyrazol-4-yl)phenyl)-3-((3-methoxyphenyl)(methyl)amino)pyrrolidin-2-one]: the IC50 lay in the range of 10 to 100 nM. For `COc1nc(N2CCC(Nc3cccc(S(=O)(=O)N4CCOCC4)c3)C2=O)ccc1-c1cn[nH]c1` (racemic) [Example 264, 1-(6-methoxy-5-(1H-pyrazol-4-yl)pyridin-2-yl)-3-((3-(morpholinosulfonyl)phenyl)amino)pyrrolidin-2-one], the 50% inhibitory concentration (IC50) was 10 to 100 nM. Then `Cc1cccc(NC2CCN(c3ccc(-c4cn[nH]c4)cc3)C2=O)c1` (centres unmarked) [Example 2, 1-(4-(1H-pyrazol-4-yl)phenyl)-3-(m-tolylamino)pyrrolidin-2-one], with 10 to 100 nM; and `COc1cccc(NC2CCN(c3ccc(-c4cn[nH]c4)c(C#N)c3)C2=O)c1` (single isomer, unassigned) [Example 377, 5-(3-((3-methoxyphenyl)amino)-2-oxopyrrolidin-1-yl)-2-(1H-pyrazol-4-yl)benzonitrile], with 100 to 2200 nM; and `O=C1C(NCCc2ccccc2)CCN1c1ccc(-c2cn[nH]c2)cc1` (centres unmarked) [Example 59, 1-(4-(1H-pyrazol-4-yl)phenyl)-3-(phenethylamino)pyrrolidin-2-one, 2 TFA], with 100 to 2200 nM. `COc1cc(NC2CCN(c3ccc(-c4cn[nH]c4)c(OCCN(C)C)c3)C2=O)ccc1F` (racemic) [Example 346, 1-(3-(2-(dimethylamino)ethoxy)-4-(1H-pyrazol-4-yl)phenyl)-3-((4-fluoro-3-methoxyphenyl)amino)pyrrolidin-2-one] gave an IC50 of 100 to 2200 nM. Then `COc1cc(NC2CCN(c3ccc(-c4cn[nH]c4)c(OC)n3)C2=O)ccc1F` (single isomer, unassigned) [Example 207, 3-((4-fluoro-3-methoxyphenyl)amino)-1-(6-methoxy-5-(1H-pyrazol-4-yl)pyridin-2-yl)pyrrolidin-2-one], with under 10 nM; and `COc1cccc(NC2CCN(c3ccc(-c4cn[nH]c4)c(OC)c3)C2=O)c1` (centres unmarked) [Example 68, 1-(3-methoxy-4-(1H-pyrazol-4-yl)phenyl)-3-((3-methoxyphenyl)amino)pyrrolidin-2-one], with under 10 nM; and `COc1nc(N2CCC(Nc3nc(C(C)(C)C)cs3)C2=O)ccc1-c1cn[nH]c1` (racemic) [Example 269, 3-((4-(tert-butyl)thiazol-2-yl)amino)-1-(6-methoxy-5-(1H-pyrazol-4-yl)pyridin-2-yl)pyrrolidin-2-one], with 100 to 2200 nM. On to `COc1cc(NC2CCN(c3cc(F)c(-c4cn[nH]c4)cc3F)C2=O)ccc1F` (single isomer, unassigned) [Example 350, 1-(2,5-difluoro-4-(1H-pyrazol-4-yl)phenyl)-3-((4-fluoro-3-methoxyphenyl)amino)pyrrolidin-2-one], for which the IC50 lay in the range of 100 to 2200 nM. Then `COCc1cc(N2CCC(Nc3ccc(F)c(OC)c3)C2=O)ccc1-c1cn[nH]c1` (single isomer, unassigned) [Example 181, 3-((4-fluoro-3-methoxyphenyl)amino)-1-(3-(methoxymethyl)-4-(1H-pyrazol-4-yl)phenyl)pyrrolidin-2-one], with 100 to 2200 nM; and `COc1nc(N2CCC(N3CCCC(C)(C)C3)C2=O)ccc1-c1cn[nH]c1` (racemic) [Example 278, 3-(3,3-dimethylpiperidin-1-yl)-1-(6-methoxy-5-(1H-pyrazol-4-yl)pyridin-2-yl)pyrrolidin-2-one], with 100 to 2200 nM. With `CC(=O)Nc1cccc(NC2CCN(c3ccc(-c4cn[nH]c4)cc3)C2=O)c1` (centres unmarked) [Example 391, N-(3-((1-(4-(1H-pyrazol-4-yl)phenyl)-2-oxopyrrolidin-3-yl)amino)phenyl)acetamide] the figure was 10 to 100 nM; with `O=C1C(Cc2cccc(F)c2)CCN1c1ccc(-c2cn[nH]c2)cc1` (centres unmarked) [Example 91, 1-(4-(1H-pyrazol-4-yl)phenyl)-3-(3-fluorobenzyl)pyrrolidin-2-one], 100 to 2200 nM; with `O=C1C(Cc2ccccc2Cl)CCN1c1ccc(-c2cn[nH]c2)cc1` (centres unmarked) [Example 95, 1-(4-(1H-pyrazol-4-yl)phenyl)-3-(2-chlorobenzyl)pyrrolidin-2-one], 100 to 2200 nM. Consider `COc1cc(F)cc(NC2CCN(c3ccc(-c4cn[nH]c4)c(F)c3)C2=O)c1` (single isomer, unassigned) [Example 49, 1-(3-fluoro-4-(1H-pyrazol-4-yl)phenyl)-3-((3-fluoro-5-methoxyphenyl)amino)pyrrolidin-2-one], for which the IC50 was under 10 nM. Regarding `CNc1nc(N2CCC(Nc3cc(F)cc(OC)c3)C2=O)ccc1-c1cn[nH]c1` (single isomer, unassigned) [Example 251, 3-((3-fluoro-5-methoxyphenyl)amino)-1-(6-(methylamino)-5-(1H-pyrazol-4-yl)pyridin-2-yl)pyrrolidin-2-one], the IC50 lay in the range of 10 to 100 nM. With `COc1cccc(NC2CCN(c3ccc(-c4ccnc5[nH]ccc45)cc3)C2=O)c1` (single isomer, unassigned) [Example 81, 1-(4-(1H-pyrrolo[2,3-b]pyridin-4-yl)phenyl)-3-((3-methoxyphenyl)amino)pyrrolidin-2-one] the figure was 10 to 100 nM; with `COc1ccc(F)c(NC2CCN(c3ccc(-c4cn[nH]c4)cc3F)C2=O)c1` (single isomer, unassigned) [Example 340, 1-(2-fluoro-4-(1H-pyrazol-4-yl)phenyl)-3-((2-fluoro-5-methoxyphenyl)amino) pyrrolidin-2-one], 100 to 2200 nM; with `COc1nc(N2CCC(N3CC(C)OC(C)C3)C2=O)ccc1-c1cn[nH]c1` (racemic) [Example 275, 3-(2,6-dimethylmorpholino)-1-(6-methoxy-5-(1H-pyrazol-4-yl)pyridin-2-yl)pyrrolidin-2-one], 100 to 2200 nM. Then `CCc1cc(N2CCC(Nc3ccc(F)c(OCC4CC4)c3)C2=O)ncc1-c1cn[nH]c1` (racemic) [Example 213, 3-((3-(cyclopropylmethoxy)-4-fluorophenyl)amino)-1-(4-ethyl-5-(1H-pyrazol-4-yl)pyridin-2-yl)pyrrolidin-2-one], with 100 to 2200 nM.
